Experimental data from article PMC10709440, “High-throughput ligand profile characterization in novel cell lines expressing seven heterologous insect olfactory receptors for the detection of volatile plant biomarkers” (Scientific Reports, 2023).
Where two headings read alike, the source gives them in different places.

Experiments:
Drosophila OR47a = target: T1, Drosophila OR47a (Drosophila melanogaster, UniProt P81921); test: Calcium ion fluorescence (GCaMP6) assay, OR47a stable HEK293 cell line; assay type: cell-based; conditions: for Average response: mean of biological replicates
T1 construct: expressed in transfected cells
T1 sequence (P81921 1-385): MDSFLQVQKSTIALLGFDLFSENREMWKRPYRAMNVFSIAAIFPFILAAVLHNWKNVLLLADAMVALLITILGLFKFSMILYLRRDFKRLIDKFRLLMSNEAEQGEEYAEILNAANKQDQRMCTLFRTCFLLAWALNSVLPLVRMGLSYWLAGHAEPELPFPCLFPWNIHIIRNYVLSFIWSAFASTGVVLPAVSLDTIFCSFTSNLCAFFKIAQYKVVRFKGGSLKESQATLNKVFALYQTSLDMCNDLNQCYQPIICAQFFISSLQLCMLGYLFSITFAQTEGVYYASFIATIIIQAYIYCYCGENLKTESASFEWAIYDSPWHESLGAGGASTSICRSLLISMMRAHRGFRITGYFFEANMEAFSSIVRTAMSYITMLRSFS
T1 sequence (Q9VNB5 1-486 partner): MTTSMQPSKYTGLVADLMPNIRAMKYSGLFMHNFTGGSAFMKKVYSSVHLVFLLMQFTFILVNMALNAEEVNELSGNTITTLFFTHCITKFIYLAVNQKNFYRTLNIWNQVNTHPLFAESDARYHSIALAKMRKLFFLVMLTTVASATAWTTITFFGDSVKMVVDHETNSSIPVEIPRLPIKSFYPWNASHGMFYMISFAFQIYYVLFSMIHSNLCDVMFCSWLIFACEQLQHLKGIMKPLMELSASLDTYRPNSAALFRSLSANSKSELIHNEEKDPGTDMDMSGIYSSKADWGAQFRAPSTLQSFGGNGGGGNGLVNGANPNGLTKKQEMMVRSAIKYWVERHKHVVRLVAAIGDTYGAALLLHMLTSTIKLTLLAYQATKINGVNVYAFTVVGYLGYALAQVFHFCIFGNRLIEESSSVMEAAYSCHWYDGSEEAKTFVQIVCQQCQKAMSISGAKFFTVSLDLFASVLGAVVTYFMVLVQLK
Summary of the method: (§1)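 Responses are VUAA1-normalized ΔF: each VOC-evoked calcium signal, (FMAX−F0)/F0 over 30 s after injection, divided by the same line's mean 50 µM VUAA1 response. Cells were doxycycline-induced HEK293 with GCaMP6 and the cognate Drosophila OR, in HEPES buffer pH 7.3; ligands tested 0.01–100 μM.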

Drosophila OR85b = target: T2, Drosophila OR85b (Drosophila melanogaster, UniProt Q9VHQ7); test: Calcium ion fluorescence (GCaMP6) assay, OR85b stable HEK293 cell line; assay type: cell-based; conditions: for Average response: VUAA1-normalized response, mean of biological replicates
T2 construct: expressed in transfected cells
T2 sequence (Q9VHQ7 1-390): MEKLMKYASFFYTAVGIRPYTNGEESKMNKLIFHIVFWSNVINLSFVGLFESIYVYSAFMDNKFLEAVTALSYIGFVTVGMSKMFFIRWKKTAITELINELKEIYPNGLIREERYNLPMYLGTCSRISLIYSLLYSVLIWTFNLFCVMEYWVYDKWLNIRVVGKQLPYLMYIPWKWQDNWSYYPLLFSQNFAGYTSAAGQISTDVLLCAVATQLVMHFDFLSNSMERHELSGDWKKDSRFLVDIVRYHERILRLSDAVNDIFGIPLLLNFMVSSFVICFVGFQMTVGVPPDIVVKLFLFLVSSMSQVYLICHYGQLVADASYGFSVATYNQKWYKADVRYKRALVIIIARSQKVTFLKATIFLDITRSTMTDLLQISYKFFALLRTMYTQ
T2 sequence (Q9VNB5 1-486 partner): T1 sequence (Q9VNB5 1-486 partner)
Summary of the method: as §1

[1] = HEK293, read-out: OR47a response (VUAA1-normalized response)
[2] = OR47a cell line, odorant cc. 1 µM
[3] = OR47a cell line, odorant cc. 10 µM
[4] = OR47a cell line, odorant cc. 100 µM
[5] = concentration 1, normalized fluorescence change, values below 0.05 threshold given as 0
[6] = concentration 10, normalized fluorescence change, values below 0.05 threshold given as 0
[7] = concentration 100, normalized fluorescence change, values below 0.05 threshold given as 0
[8] = HEK293, read-out: OR85b Average response (VUAA1-normalized)
[9] = HEK293, read-out: OR85b response (VUAA1-normalized response)
[10] = ligand concentration 1 (unit not given), 0.05 threshold, values below shown as 0
[11] = ligand concentration 10 (unit not given), 0.05 threshold, values below shown as 0
[12] = ligand concentration 100 (unit not given), 0.05 threshold, values below shown as 0

| Structure (SMILES) | Average response (Drosophila OR47a; [2]) | Average response (Drosophila OR47a; [3]) | Average response (Drosophila OR47a; [4]) | DF norm AVERAGE OR47a (Drosophila OR47a; [5]) | DF norm AVERAGE OR47a (Drosophila OR47a; [6]) | DF norm AVERAGE OR47a (Drosophila OR47a; [7]) | Average response (Drosophila OR85b; OR85b cell line, cc. 1 µM) | Average response (Drosophila OR85b; OR85b cell line, cc. 10 µM) | Average response (Drosophila OR85b; OR85b cell line, cc. 100 µM) | DF norm AVERAGE OR85b (Drosophila OR85b; [5]) | DF norm AVERAGE OR85b (Drosophila OR85b; [6]) | DF norm AVERAGE OR85b (Drosophila OR85b; [7]) | other results |
| --- | --- | --- | --- | --- | --- | --- | --- | --- | --- | --- | --- | --- | --- |
| CCCCCC(C)O (stereo not drawn) [2-heptanol] | 0.00 | 0.06 | 0.00 | 0 | 0.05999 | 0 | 0.0455 | 0.05 | 0.32 | 0 | 0 | 0.3169 | activation at 1 µM (Drosophila OR47a; [1]): 0%; activation at 10 µM (Drosophila OR47a; [1]): 6%; activation at 100 µM (Drosophila OR47a; [1]): 0%; activation at 1 µM (Drosophila OR85b; [8]): 5%; activation at 10 µM (Drosophila OR85b; [8]): 5%; activation at 100 µM (Drosophila OR85b; [8]): 32%; activation at 1 µM (Drosophila OR85b; [9]): 0%; activation at 10 µM (Drosophila OR85b; [9]): 0%; activation at 100 µM (Drosophila OR85b; [9]): 32% |
| CCCCCCCCCCCCCC [tetradecane] | 0.02 | 0.03 | 0.00 |  |  |  | 0.10 | 0.0844 | 0.04 |  |  |  | OR47a response (VUAA1-normalized) at 1 μM (Drosophila OR47a; OR47a cell line, VOC concentration 1 μM): 0.00; OR47a response (VUAA1-normalized) at 10 μM (Drosophila OR47a; OR47a cell line, VOC concentration 10 μM): 0.00; OR47a response (VUAA1-normalized) at 100 μM (Drosophila OR47a; OR47a cell line, VOC concentration 100 μM): 0.00; DF norm AVERAGE OR47a (Drosophila OR47a; [10]): 0; DF norm AVERAGE OR47a (Drosophila OR47a; [11]): 0; DF norm AVERAGE OR47a (Drosophila OR47a; [12]): 0; OR85b response (VUAA1-normalized) at 1 μM (Drosophila OR85b; OR85b cell line, VOC concentration 1 μM): 0.10; OR85b response (VUAA1-normalized) at 10 μM (Drosophila OR85b; OR85b cell line, VOC concentration 10 μM): 0.0844; OR85b response (VUAA1-normalized) at 100 μM (Drosophila OR85b; OR85b cell line, VOC concentration 100 μM): 0.00; DF norm AVERAGE OR85b (Drosophila OR85b; [10]): 0.0972; DF norm AVERAGE OR85b (Drosophila OR85b; [11]): 0.08442; DF norm AVERAGE OR85b (Drosophila OR85b; [12]): 0 |
| CC1=CCC[C@@]2(C)[C@@H]3CC[C@]12CC3(C)C [(−)-α-neoclovene] | 0.00 | 0.00 | 0.018 | 0 | 0 | 0 | 0.00 | 0.00 | 0.0165 | 0 | 0 | 0 | OR47a response (VUAA1-normalized response) (Drosophila OR47a; VOC concentration 1 μM): 0.00; OR47a response (VUAA1-normalized response) (Drosophila OR47a; VOC concentration 10 μM): 0.00; OR47a response (VUAA1-normalized response) (Drosophila OR47a; VOC concentration 100 μM): 0.00; OR85b response (VUAA1-normalized response) (Drosophila OR85b; VOC concentration 1 μM): 0.00; OR85b response (VUAA1-normalized response) (Drosophila OR85b; VOC concentration 10 μM): 0.00; OR85b response (VUAA1-normalized response) (Drosophila OR85b; VOC concentration 100 μM): 0.00 |
